Laboratory results as given in US12398107B2, “Fungicidal nitroanilino substituted pyrazoles” (FMC Corporation, priority 2018, dated 2025).

How the values were obtained:
Type in all cases: in vivo
Alternaria solani = experiment: Test F: tomato early blight, preventive spray on tomato seedlings; settings: 50 ppm, 100 = 100% disease control, 0 = no control
From the text: (§1) General protocol for preparing test suspensions for Tests A-F: the test compounds were first dissolved in acetone in an amount equal to 3% of the final volume and then suspended at the desired concentration (in ppm) in acetone and purified water (50/50 mix by volume) containing 250 ppm of the surfactant PEG400 (polyhydric alcohol esters). The resulting test suspensions were then used in Tests A-F. The test suspension was sprayed to the point of run-off on tomato seedlings. The following day the seedlings were inoculated with a spore suspension of Alternaria solani (the causal agent of tomato early blight) and incubated in a saturated atmosphere at 27° C. for 48 h, and then moved to a growth chamber at 20° C. for 3 days, after which time visual disease ratings were made. A rating of 100 indicates 100% disease control and a rating of 0 indicates no disease control (relative to the controls). A dash (-) indicates the compound was not tested.

[1] = tested on: Blumeria graminis f. sp. tritici; experiment: Test C: wheat powdery mildew, preventive spray on wheat seedlings; settings: 50 ppm, rated after 8 days, 100 = 100% disease control, 0 = no control
From the text: as §1, with “on wheat” for “on tomato”, “spore dust” for “spore suspension”, “of Blumeria graminis f. sp. tritici, (also known as Erysiphe graminis f. sp. tritici, the” for “of Alternaria solani (the”, “of wheat powdery mildew)” for “of tomato early blight)”, “in” for “in a saturated atmosphere at 27° C. for 48 h, and then moved to”, “for 8” for “for 3”

Botrytis cinerea = experiment: Test E: tomato Botrytis, preventive spray on tomato seedlings; settings: 50 ppm, 100 = 100% disease control, 0 = no control
From the text: as §1, with “Botrytis cinerea” for “Alternaria solani”, “Botrytis)” for “early blight)”, “20°” for “27°”, “24°” for “20°”

Septoria tritici = experiment: Test A: wheat leaf blotch, preventive spray on wheat seedlings; settings: 50 ppm, 100 = 100% disease control, 0 = no control relative to controls
From the text: (§2) General protocol for preparing test suspensions for Tests A-F: the test compounds were first dissolved in acetone in an amount equal to 3% of the final volume and then suspended at the desired concentration (in ppm) in acetone and purified water (50/50 mix by volume) containing 250 ppm of the surfactant PEG400 (polyhydric alcohol esters). The resulting test suspensions were then used in Tests A-F. The test solution was sprayed to the point of run-off on wheat seedlings. The following day the seedlings were inoculated with a spore suspension of Septoria tritici (the causal agent of wheat leaf blotch) and incubated in a saturated atmosphere at 24° C. for 48 h, and then moved to a growth chamber at 20° C. for 17 days, after which time disease ratings were made. A rating of 100 indicates 100% disease control and a rating of 0 indicates no disease control (relative to the controls). A dash (-) indicates the compound was not tested.

Phakopsora pachyrhizi = experiment: Test D: Asian soybean rust, preventive spray on soybean seedlings; settings: 50 ppm, 100 = 100% disease control, 0 = no control
From the text: General protocol for preparing test suspensions for Tests A-F: the test compounds were first dissolved in acetone in an amount equal to 3% of the final volume and then suspended at the desired concentration (in ppm) in acetone and purified water (50/50 mix by volume) containing 250 ppm of the surfactant PEG400 (polyhydric alcohol esters). The resulting test suspensions were then used in Tests A-F.
The test solution was sprayed to the point of run-off on soybean seedlings. The following day the seedlings were inoculated with a spore suspension of Phakopsora pachyrhizi (the causal agent of Asian soybean rust) and incubated in a saturated atmosphere at 22° C. for 24 h and then moved to a growth chamber at 22° C. for 8 days, after which time visual disease ratings were made.
A rating of 100 indicates 100% disease control and a rating of 0 indicates no disease control (relative to the controls). A dash (-) indicates the compound was not tested.

[2] = tested on: Puccinia recondita f. sp. tritici; experiment: Test B: wheat leaf rust, preventive spray on wheat seedlings; settings: 50 ppm, 100 = 100% disease control, 0 = no control relative to controls
From the text: as §2, with “Puccinia recondita f. sp.” for “Septoria”, “rust)” for “blotch)”, “20°” for “24°”, “24” for “48”, “7” for “17”

Row | Compound | Test F disease control rating (tomato early blight) (Alternaria solani) [%] | Test C disease control rating (wheat powdery mildew) [1] [%] | Test E disease control rating (tomato Botrytis) (Botrytis cinerea) [%] | Test A disease control rating (wheat leaf blotch) (Septoria tritici) [%] | Test D disease control rating (Asian soybean rust) (Phakopsora pachyrhizi) [%] | Test B disease control rating (wheat leaf rust) [2] [%]
1 | CCc1nn(C)c(Nc2c(F)cc(F)cc2[N+](=O)[O-])c1-c1ccc(F)cc1F [Compound 50] | 98 | 100 | 92 | 100 | 0 | 98
2 | Cc1nn(C)c(Nc2c(Cl)cc(Cl)cc2[N+](=O)[O-])c1-c1c(F)cccc1F [Compound 96] | 0 | 0 | 80 | 100 | 0 | 95
3 | CCc1nn(C)c(Nc2c(F)cc(F)cc2[N+](=O)[O-])c1-c1ccc(F)cc1Cl [Compound 95] | 99 | 100 | 99 | 100 | 84 | 100
4 | Cc1ccc(Nc2c(-c3ccc(F)cc3Cl)c(C)nn2C)c([N+](=O)[O-])c1 [Compound 26] | 68 | 94 | 100 | 100 | 77 | 99
5 | COCc1ccc(Nc2c(-c3ccc(F)cc3Cl)c(C)nn2C)c([N+](=O)[O-])c1 [Compound 4] | 0 | 76 | 74 | – | 0 | 86
6 | COc1ccc(Nc2c(-c3ccc(F)cc3F)c(C)nn2C)c([N+](=O)[O-])c1 [Compound 88] | 9 | 84 | 99 | – | 0 | 97
7 | Cc1ccc(Nc2c(-c3c(F)cc(F)cc3Cl)c(C)nn2C)c([N+](=O)[O-])c1 [Compound 106] | 68 | 98 | 99 | – | 0 | 100
8 | COc1ccc(Nc2c(-c3c(F)cccc3F)c(C)nn2C)c([N+](=O)[O-])c1 [Compound 87] | 93 | 98 | 98 | – | 0 | 99
9 | Cc1ccc(Nc2c(-c3ccc(F)cc3F)c(C)nn2C)c([N+](=O)[O-])c1 [Compound 107] | 0 | 61 | 98 | – | 0 | 91
10 | COc1ccc(Nc2c(-c3c(F)cc(F)cc3Cl)c(C)nn2C)c([N+](=O)[O-])c1 [Compound 89] | 99 | 99 | 99 | – | 80 | 100
11 | CCc1ccc(Nc2c(-c3ccc(F)cc3Cl)c(C)nn2C)c([N+](=O)[O-])c1 [Compound 6] | 0 | 27 | 55 | – | 0 | 74
